# Test results as given in article PMC7381740 (Theranostics, 2020).
# “And” between values parts separate entries of the source, which are not always exact repeats. Equal values may be shown once.
# Tests used:
# [1] = target: T1, S1R (Homo sapiens, UniProt Q99720); test: Autoradiography in post-mortem human cortex (controls, subclinical AD, AD); type: binding
# T1 construct: Post-mortem brain tissues of 23 cases (8 men and 15 women) were obtained from the Manchester Brain Bank; from tissue; host or cells: post-mortem human frontal and temporal cortex (Manchester Brain Bank)
# Source text: Post-mortem brain tissues of 23 cases (8 men and 15 women) were obtained from the Manchester Brain Bank through appropriate consenting procedures for collection and use of the human brain tissues. Pathological diagnoses were made by an experienced neuropathologist (DM) as previously described, [48] and were in accordance with recent National Institute on Ageing - Alzheimer's Association guidelines for the neuropathological assessment of AD [49]. By such classification, only cases with Braak stages 5 and 6 were classed as definite AD. Cases with Braak Stages >2 & ≤4 were not diagnosed as definite AD, but these could be considered as cases of possible (incipient) AD, thereby representing cases with early changes of AD. Amyloid plaque load per se was not employed for classification of AD, although it is acknowledged that neuritic plaque scores do form the basis of CERAD classification. Clearly, in terms of amyloid plaques alone, there was overlap in amyloid load between cases at Braak stage >2 & ≤4 and those at Braak stages 5 and 6. Subjects were therefore split in three groups based on their Braak stages: controls (Braak ≤2, 8 subjects), subclinical AD (Braak >2 & ≤4, 8 subjects) and AD (Braak >4, 7 subjects). Details of each case are described in Table 1. […] These were obtained from aged patients with no history of neurological disease and no pathological evidence of AD or other degenerative brain disease. […] The average post-mortem delay was also similar for all groups (mean ± SD [min.-max.]: 34.9 ± 11.3 [12]-[46]; 35.8 ± 9.9 [25]-[48] and 41.5 ± 14.2 [24]-[64] hours for controls, subclinical AD and AD groups, respectively). Subsequently to the autoradiography experiments, measurements from frontal cortex of case #3 were not included as the sections had been damaged during the experiments (Table 1).
# (§1) Sections of frontal (Brodmann areas 8/9) and temporal cortex (Brodmann areas 21/22) were cut from frozen human tissue blocks. Human and rodents sections were mounted on to glass slides (SuperFrost Plus Gold and SuperFrost Plus slides, Thermo Fisher Scientific Inc., MA, USA for human and animal tissues, respectively). For all steps described below, Tris buffer (Trizma pre-set crystals (Sigma, UK), 50 mM, with 120 mM NaCl, with pH adjusted to 7.4 at 4 °C or room temperature) was used. Slides were allowed to defrost then pre-incubated in Tris Buffer at 4 °C for 5min. […] Adjacent sections were incubated with the same solution containing an excess of unlabelled IAM6067 (2 µM) to assess non-specific binding. Next the slides were washed 2 × 2 min in Tris buffer at 4 °C, followed by a quick rinsing in distilled water at 4 °C. Slides were then dried promptly before exposition on Phosphor-Imager plates overnight. Autoradiographs were analysed using AIDA software (Raytest GmbH, Germany). […] Specific binding (total binding minus non-specific binding) in each ROI is expressed as intensity of the photostimulated luminescence (PSL) per pixel.
# Specific binding for human autoradiography across the three groups in both frontal and temporal cortex and for grey and white matter was analysed by mixed-model fitting (brain structures as repeated factor). As this analysis only returned an effect for the brain structures factor and not for the Braak stage, a Sidak's post-hoc test comparing brain regions only was performed.
# [2] = Metabolite analysis in plasma and brain (radio-HPLC after i.v. injection); type: in vivo, rat
# Experimental: Blood samples were collected at 1, 2, 5 min post-injection and at 10, 20, 40 or 60 min post-injection when the animals were sacrificed. Seven animals used for metabolites analysis were also scanned for 60 min. Plasma was isolated by centrifugation (3 min, 3000 × g at 4 °C). Two hundred µL of CH3CN was added to 200 µL of serum for protein precipitation and after centrifugation (3 min, 3000 × g at 4 °C), 100 µL of supernatant was injected into the HPLC for quantification (HPLC equipment: Shimadzu prominence with a UV detector and bespoke Scintillation detector; column: ACE 3 C18 HL, [Hichrom], 150 × 4.6 mm; porosity: 3 μm; solvent A: 0.1 M ammonium acetate; solvent B: CH3CN, isocratic elution: 50:50 (A/B) in 15 min; flow rate: 1 mL/min; room temperature; absorbance detection at λ = 254 nm). Animal brains were removed and then homogenised by ultra-Turrax® in 2 mL of ice-cold acetonitrile. After centrifugation (3 min, 9000 × g at 4 °C), the supernatant was separated from the pellet. One hundred microliters of brain supernatant were injected on the HPLC column (same conditions as above). Control samples were spiked with 15 µL of stable standard. The parent radiotracer eluted at 11 minutes.
# [3] = target: T2, S1R (Rattus norvegicus, UniProt Q9R0C9); test: In vitro autoradiography, naive rat brain sections; type: binding; settings: 2 nM tracer
# Experimental: as §1
# [4] = target: T2, S1R; test: Autoradiography in AMPA-injected rat brain sections; type: binding; settings: striatum (caudate-putamen + globus pallidus), AMPA rats
# Experimental: Animals were maintained normothermic (body temperature: 37.0 ± 0.4 °C) during the surgery through the use of a heating blanket (Homeothermic Blanket Control Unit, Harvard Apparatus Limited®, Edenbridge, Kent, UK). Twenty-four hours later, the rats were anesthetized again as described above and scanned with a 3T cryogen-free MRS 3000 scanner with a quadrature, rat head coil (MR Solutions, Guildford, UK), [35] to assess oedema (i.e. lesion size and location) immediately before the PET scan. Parameters for the T2-weighted RARE sequence were: repetition time = 4800 ms, base echo time = 17 ms, effective echo time = 68 ms, number of echoes = 8, bandwidth = 20 kHz, number of samples = 256, number of views = 240, number of averages = 1 with 25 slices of 1.06 mm, giving a final voxel size of 0.136 × 0.136 × 1.06 mm.
# Sections of frontal (Brodmann areas 8/9) and temporal cortex (Brodmann areas 21/22) were cut from frozen human tissue blocks. […] Autoradiographs were analysed using AIDA software (Raytest GmbH, Germany). […] Specific binding (total binding minus non-specific binding) in each ROI is expressed as intensity of the photostimulated luminescence (PSL) per pixel.
# Specific binding in the ipsi- and contralateral striatum in the rat AMPA model was analysed with a paired t-test.
# T1 sequence (Q99720 whole entry): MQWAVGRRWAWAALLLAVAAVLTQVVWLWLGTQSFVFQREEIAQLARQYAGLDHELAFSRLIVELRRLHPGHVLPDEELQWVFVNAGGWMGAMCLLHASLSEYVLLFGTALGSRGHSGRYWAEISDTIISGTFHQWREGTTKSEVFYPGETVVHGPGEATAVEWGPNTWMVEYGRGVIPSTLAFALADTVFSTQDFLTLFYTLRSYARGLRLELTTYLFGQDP
# T2 sequence (Q9R0C9 whole entry): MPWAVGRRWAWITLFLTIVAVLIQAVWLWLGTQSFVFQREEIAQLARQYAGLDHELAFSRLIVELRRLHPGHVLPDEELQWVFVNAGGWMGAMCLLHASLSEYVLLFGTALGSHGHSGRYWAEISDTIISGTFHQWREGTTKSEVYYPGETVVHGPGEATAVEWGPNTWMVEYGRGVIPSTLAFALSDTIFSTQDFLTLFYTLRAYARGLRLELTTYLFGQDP
compound,measurement,setting,value
"FCCOc1ccc(CN2CCN(Cc3cc4ccccc4o3)CC2)cc1 [^18F-IAM6067, N-(2-Benzofuranylmethyl)-N'-[4-(2-fluoroethoxy)benzyl]piperazine]",specific binding,"[1]; human frontal grey matter, AD (Braak >4)",3.27 ± 0.90 PSL/pixel
same,specific binding,"[1]; human frontal grey matter, controls (Braak ≤2)",2.37 ± 1.09 PSL/pixel
same,specific binding,"[1]; human frontal grey matter, subclinical AD (Braak >2 & ≤4)",3.11 ± 0.84 PSL/pixel
same,specific binding,"[1]; human temporal grey matter, AD (Braak >4)",2.91 ± 1.20 PSL/pixel
same,specific binding,"[1]; human temporal grey matter, controls (Braak ≤2)",2.56 ± 1.24 PSL/pixel
same,specific binding,"[1]; human temporal grey matter, subclinical AD (Braak >2 & ≤4)",2.98 ± 1.15 PSL/pixel
same,Percentage of ^18F-IAM6067 and metabolites,"[2]; rat brain, 10 min post-injection",91.3±3.7%
same,Percentage of ^18F-IAM6067 and metabolites,"[2]; rat brain, 20 min post-injection",94.1±2.8%
same,Percentage of ^18F-IAM6067 and metabolites,"[2]; rat brain, 60 min post-injection",91.3±6.0%
same,Percentage of ^18F-IAM6067 and metabolites,"[2]; rat plasma, 1 min post-injection",88.8±12.1%
same,Percentage of ^18F-IAM6067 and metabolites,"[2]; rat plasma, 2 min post-injection",58.3±4.1%
same,Percentage of ^18F-IAM6067 and metabolites,"[2]; rat plasma, 5 min post-injection",22.4±11.6%
same,Percentage of ^18F-IAM6067 and metabolites,"[2]; rat plasma, 10 min post-injection",~10%
same,Percentage of ^18F-IAM6067 and metabolites,"[2]; rat plasma, 10 min post-injection, listed as Parent",10.1±8.6%
same,Percentage of ^18F-IAM6067 and metabolites,"[2]; rat plasma, 20 min post-injection",~10%
same,Percentage of ^18F-IAM6067 and metabolites,"[2]; rat plasma, 20 min post-injection, listed as Parent",9.8±4.2%
same,Percentage of ^18F-IAM6067 and metabolites,"[2]; rat plasma, 60 min post-injection",not detectable
same,Percentage of ^18F-IAM6067 and metabolites,"[2]; rat plasma, 60 min post-injection, listed as Parent",0.0%
same,specific binding,[3]; cingulate cortex,4.96 ± 0.26 PSL/pixel
same,specific binding,[3]; hypothalamus,6.79 ± 0.95 PSL/pixel
same,specific binding,[3]; pons,7.24 ± 0.89 PSL/pixel
same,specific binding,[3]; somatosensory cortex,4.49 ± 0.51 PSL/pixel
same,specific binding,[3]; striatum,4.56 ± 0.42 PSL/pixel
same,"change in ^18F-IAM6067 specific binding, ipsi- vs contralateral",[4],-38 ± 8% and -38%
